Several values for one entry are separate records, joined by “and”; a condition that tells them apart may be missing. Identical values can stand only once.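 In this assay, cells in 96-well plates receive the compound at five concentrations for 48 hours. Endpoints are linearly interpolated between the surrounding concentrations. GI50 is the concentration that inhibits growth by half.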 Activity calls are given as the source filed them. Rule as the data show it: active = GI50 up to about 1.1 µM and inactive = higher. A value given as a limit tells only on which side of the number the result lay.

A word on the GI50: it is the concentration at which growth is held to half of that of the control.

Among the test systems are HT-29; NCI-H23; NCI-H460; EKVX; SN12C; KM12; HOP-62; MDA-MB-435; OVCAR-8; ACHN; OVCAR-5; HOP-92; HCT-15; CAKI-1; SK-MEL-5; Malme-3M; LOX IMVI; SK-MEL-28; NCI/ADR-RES; MCF7.
Holding throughout (test): DTP human tumour cell line panel, 48 h

In the case of `CC(=O)OCCN1c2ccccc2Sc2cnccc21`, the GI50 with HT-29 was > 10 µM (inactive); in the assay with NCI-H23, > 10 µM (inactive); in the assay with NCI-H460, > 10 µM (inactive); in the assay with EKVX it was 8.55 µM (inactive); in the assay on SN12C, > 10 µM (inactive); in the assay with KM12 it was 0.067 µM (active). Moreover, the GI50 in the assay with HOP-62, with MDA-MB-435, in the assay with OVCAR-8, in the assay with ACHN, in the assay with OVCAR-5 and in the assay with HOP-92 was > 10 µM (inactive) in each case. Also, the GI50 is > 10 µM with HCT-15; > 10 µM (inactive) in the assay with CAKI-1; > 10 µM (inactive) in the assay with SK-MEL-5; > 10 µM (inactive) with Malme-3M; > 10 µM (inactive) in the assay with LOX IMVI; > 10 µM (inactive) in the assay with SK-MEL-28. The GI50 with NCI/ADR-RES and in the assay on MCF7 was > 10 µM (inactive) throughout.

Turning to `COc1ccc2c(c1)-c1nc(=S)n(CCCN(C)C)c3ccc([N+](=O)[O-])c(c13)N2`, the GI50 in the assay on HT-29 is 0.261 µM (active); in the assay on NCI-H23 it was 1.08 µM (active); in the assay on NCI-H460 it was 0.358 µM (active); in the assay with EKVX it was 0.805 µM (active); in the assay on SN12C, 0.582 µM (active); in the assay with KM12, 0.543 µM (active). The GI50 with HOP-62 was 0.451 µM (active); in the assay with MDA-MB-435 it was 1.97 µM (inactive); with OVCAR-8, 0.456 µM (active); with ACHN, 0.296 µM (active); in the assay with OVCAR-5, 0.611 µM (active); with HOP-92, 2.15 µM (inactive). The GI50 with HCT-15 was 0.484 µM; in the assay with CAKI-1 it was 1.68 µM (inactive); in the assay with SK-MEL-5 it was 1.14 µM (inactive); in the assay on Malme-3M, 0.518 µM (active); in the assay on LOX IMVI, 0.53 µM (active); in the assay on SK-MEL-28 it was 1.13 µM (inactive). The GI50 in the assay with NCI/ADR-RES was 1.25 µM (inactive); in the assay on MCF7, 0.437 µM (active).

For the compound `NCCCc1nonc1C(=O)O`, the GI50 in the assay with HT-29, in the assay with NCI-H23, with NCI-H460, in the assay on EKVX, with SN12C and in the assay with KM12 was > 100 µM (inactive) in each case. Besides, the GI50 with HOP-62, in the assay with MDA-MB-435, with OVCAR-8, in the assay with ACHN, in the assay on OVCAR-5 and with HOP-92 was > 100 µM (inactive) throughout. The GI50 in the assay on HCT-15 is > 100 µM; with CAKI-1, > 100 µM (inactive); with SK-MEL-5, > 100 µM (inactive); in the assay on Malme-3M, > 100 µM (inactive); in the assay on LOX IMVI, > 100 µM (inactive); in the assay on SK-MEL-28, > 100 µM (inactive). The GI50 with NCI/ADR-RES and in the assay with MCF7 was > 100 µM (inactive) each time.

For `CCOC(=O)C1Cc2ccc(C)cc2C1=O` (configuration not stated), the GI50 was > 100 µM (inactive) in the assay with HT-29; 55.6 µM (inactive) with NCI-H23; > 100 µM (inactive) with NCI-H460; > 100 µM (inactive) with EKVX; 82.6 µM (inactive) in the assay with SN12C; > 100 µM (inactive) in the assay with KM12. Further, the GI50 with HOP-62 was > 100 µM (inactive); in the assay on MDA-MB-435 it was 54.5 µM (inactive); in the assay with OVCAR-8 it was > 100 µM (inactive); in the assay on ACHN it was > 100 µM (inactive); with OVCAR-5, > 100 µM (inactive); in the assay with HOP-92 it was > 100 µM (inactive). The GI50 in the assay on HCT-15 was 61.4 µM; in the assay on CAKI-1, > 100 µM (inactive); with SK-MEL-5, 72.1 µM (inactive); with Malme-3M, 70 µM (inactive); with LOX IMVI it was 62.5 µM (inactive); in the assay with SK-MEL-28, 23.8 µM (inactive). Also, the GI50 with NCI/ADR-RES was 85.1 µM (inactive); with MCF7 it was > 100 µM (inactive).

As for `CC(C)(C)OC(=O)Nc1nnc(S(N)(=O)=O)s1`, the GI50 with HT-29, in the assay with NCI-H23, with NCI-H460, with EKVX, in the assay with SN12C and with KM12 was > 100 µM (inactive) throughout. In addition, the GI50 in the assay on HOP-62, in the assay on MDA-MB-435, in the assay on OVCAR-8, in the assay on ACHN, with OVCAR-5 and in the assay with HOP-92 was > 100 µM (inactive) throughout. The GI50 is > 100 µM with HCT-15; > 100 µM (inactive) in the assay with CAKI-1; > 100 µM (inactive) in the assay with SK-MEL-5; > 100 µM (inactive) in the assay on Malme-3M; > 100 µM (inactive) in the assay with LOX IMVI; > 100 µM (inactive) in the assay on SK-MEL-28. Further, the GI50 in the assay on NCI/ADR-RES and in the assay with MCF7 was > 100 µM (inactive) throughout.

With `NC(=S)NS(=O)(=O)c1ccc(F)cc1F`, the GI50 with HT-29, in the assay with NCI-H23, in the assay with NCI-H460, in the assay on EKVX, with SN12C and in the assay on KM12 was > 100 µM (inactive) throughout. In addition, the GI50 with HOP-62, with MDA-MB-435, with OVCAR-8, in the assay on ACHN, in the assay on OVCAR-5 and with HOP-92 was > 100 µM (inactive) each time. Further, the GI50 in the assay on HCT-15 was > 100 µM; in the assay with CAKI-1, > 100 µM (inactive); in the assay on SK-MEL-5, > 100 µM (inactive); in the assay on Malme-3M, > 100 µM (inactive); with LOX IMVI, > 100 µM (inactive); with SK-MEL-28, > 100 µM (inactive). Further, the GI50 with NCI/ADR-RES and in the assay with MCF7 was > 100 µM (inactive) in each case.

As to `COC(=O)C1CCC(=O)N1CN(C(C)=O)c1ccccc1` (configuration not stated), the GI50 with HT-29, in the assay with NCI-H23, in the assay on NCI-H460, in the assay with EKVX, in the assay on SN12C and in the assay on KM12 was > 100 µM (inactive) each time. Besides, the GI50 with HOP-62, in the assay with MDA-MB-435, in the assay on OVCAR-8, in the assay on ACHN, in the assay with OVCAR-5 and in the assay on HOP-92 was > 100 µM (inactive) each time. The GI50 with HCT-15 is > 100 µM; with CAKI-1 it was > 100 µM (inactive); with SK-MEL-5, > 100 µM (inactive); in the assay with Malme-3M, > 100 µM (inactive); in the assay on LOX IMVI, > 100 µM (inactive); in the assay on SK-MEL-28 it was > 100 µM (inactive). Besides, the GI50 in the assay on NCI/ADR-RES and in the assay on MCF7 was > 100 µM (inactive) in each case.

In the case of `Nc1ncnc2c1ncn2CC(O)C(=O)O` (configuration not stated), the GI50 in the assay with HT-29, in the assay on NCI-H23, with NCI-H460, in the assay on EKVX, in the assay with SN12C and in the assay on KM12 was > 100 µM (inactive) throughout. For the same compound, the GI50 in the assay on HOP-62, in the assay with MDA-MB-435, in the assay with OVCAR-8, in the assay on ACHN, in the assay with OVCAR-5 and with HOP-92 was > 100 µM (inactive) in each case. Further, the GI50 in the assay with HCT-15 is > 100 µM; in the assay on CAKI-1, > 100 µM (inactive); in the assay on SK-MEL-5 it was > 100 µM (inactive); with Malme-3M, > 100 µM (inactive); with LOX IMVI, > 100 µM (inactive); in the assay with SK-MEL-28 it was > 100 µM (inactive). For the same compound, the GI50 with NCI/ADR-RES and in the assay on MCF7 was > 100 µM (inactive) each time.

As for `Cc1c(Cl)cccc1NC(=O)CC1Sc2ccccc2NC1=O` (configuration not stated), the GI50 is 13.9 µM (inactive) with HT-29; 35.9 µM (inactive) and 24 µM (inactive) in the assay on NCI-H23; 22.4 µM (inactive) and 23.2 µM (inactive) in the assay on NCI-H460; 46.9 µM (inactive) and 49.8 µM (inactive) in the assay with EKVX; 25.1 µM (inactive) and 47.2 µM (inactive) in the assay with SN12C; 11 µM (inactive) and 16.6 µM (inactive) with KM12. Besides, the GI50 in the assay on HOP-62 is 10.1 µM (inactive) and 18.2 µM (inactive); with MDA-MB-435 it was 2.82 µM (inactive); in the assay on OVCAR-8 it was 16.4 µM (inactive) and 20.8 µM (inactive); in the assay on ACHN, 23.7 µM (inactive) and 23.5 µM (inactive); in the assay on OVCAR-5, 48.9 µM (inactive) and 51.8 µM (inactive); in the assay with HOP-92, 17.7 µM (inactive) and 33 µM (inactive). Further, the GI50 in the assay on CAKI-1 was 36.3 µM (inactive) and 42.2 µM (inactive); in the assay on SK-MEL-5, 14.2 µM (inactive) and 10.5 µM (inactive); with Malme-3M, 19.5 µM (inactive) and 18.5 µM (inactive); in the assay with LOX IMVI it was 24.8 µM (inactive) and 33.8 µM (inactive); in the assay with NCI/ADR-RES, 17 µM (inactive); with MCF7, 11 µM (inactive).

`CC(=O)N1C(C(=O)NNc2ccccc2)CSC1c1ccccc1` (configuration not stated): the GI50 in the assay with HT-29 was > 100 µM (inactive); in the assay with NCI-H23 it was > 100 µM (inactive); in the assay on NCI-H460, > 100 µM (inactive); in the assay on EKVX, > 100 µM (inactive); with SN12C, > 100 µM (inactive); in the assay with KM12, 71.3 µM (inactive). Further, the GI50 is > 100 µM (inactive) in the assay with HOP-62; 16.7 µM (inactive) in the assay on MDA-MB-435; > 100 µM (inactive) with OVCAR-8; 4.47 µM (inactive) in the assay with ACHN; > 100 µM (inactive) in the assay with OVCAR-5; > 100 µM (inactive) in the assay with HOP-92. Besides, the GI50 is 1.56 µM with HCT-15; > 100 µM (inactive) with CAKI-1; > 100 µM (inactive) with SK-MEL-5; > 100 µM (inactive) in the assay on Malme-3M; 3.16 µM (inactive) in the assay on LOX IMVI; > 100 µM (inactive) with NCI/ADR-RES. In addition, the GI50 in the assay on MCF7 was > 100 µM (inactive).

Values taken from ChEMBL document CHEMBL1201862, “PubChem BioAssay data set” (2004).
